The source of these data is patent publication US8269009B2, “Methods and compositions for treating liquid tumors” (Elan Pharmaceuticals, Inc., priority 2007, dated 2012).

Data set [1] concerns neovascularization of the cornea. The experiment in a line: Mouse corneal micropocket angiogenesis assay (VEGF pellet). The format is in vivo, C57BL/6 mice. Here is the method: Fifty-five Charles River (Wilmington, N.C.) female C57BL/6 mice were available for the study. […] On Day 1 (Oct. 9, 2007) the Hydron pellets were implanted into corneal pocket cut in one eye of mice; pellets containing 200 ng/animal VEGF were implanted in Groups 2-6. Mice were anesthetized with 90 mg/kg pentobarbital, IP, immediately prior to implantation surgery; pellet implantation was performed according to Piedmont SOP which the test facility described as an adaptation of the method described by Kenyon et al (B M Kenyon, E E Voest, C C Chen, E Flynn, J Folkman, R J D'Amato, 1996, A model of angiogenesis in the mouse cornea, Investigative Opthalmology & Visual Science, Vol 37 No 8, 1625-1632). […]
Body weights were taken every day throughout the study. […] The vessel length of the longest blood vessel to have grown upward from the limbus was measured (VL) as was the circumference of vessel growth or clock hour (CH). The area of neovascularization was calculated using the formula: Area (mm^2)=πVL×CH×0.2. In addition to reporting the vessel length, clock hour, and calculated area of neovascularization, the percent neovascularization compared to the VEGF-treated negative control (Group 2) was reported. statistical significance by Kruskal-Wallis-Dunn with comparison to Group 2 and mean body weight nadir (the lowest group mean body weight, as a percent change from Day 1. […]

A short description of data set [2]: Maximum tolerated dose of topotecan in the MOLT-4 model (Piedmont Research Center). Particulars: SCID, mouse, in vivo; MOLT-4 cell line model. Here is the method:
The dose level of 12 mg/kg topotecan was determined as maximum tolerated dose in the MOLT-4 cell line by Piedmont Research Center. Since maximal biologic effect can occur at a dose much lower than the MTD, we had included ½ the maximum tolerated (½MTD=6 mg/kg) (see Marx, G M et al., Journal of Clin One 2002; 20(6): 1446-1448).

As to “bevacizumab: bevacizumab (Avastin, Genentech), an anti-VEGF monoclonal antibody”, the Percent neovascularization in data set [1] (10 mg/kg IP, qd x 6 from Day 2) was 0%. Further, the “Changes in body weight vs untreated group” value in data set [1] (mouse, in vivo) is recorded as “no significant changes”.

`CC[C@@]1(O)C(=O)OCc2c1cc1n(c2=O)Cc2cc3c(CN(C)C)c(O)ccc3nc2-1` [topotecan] yielded an MTD in data set [2] of 12 mg/kg.

The MTD is the highest dose tested that stayed within the study's limit of toxicity. High values mean better tolerability, low ones poorer tolerability.
